“Also recorded” adds a separate entry of the source.
Columns and labels:
[1] = test system: human oligodendrocytes precursor cells (hOPC); test: Microarray gene expression analysis of LDN treated hOPC; assay type: cell-based; conditions: 125 nM, 35 days
Description: LDN (125 nM) was supplemented to human oligodendrocytes precursor cells (hOPC) for 35 days. Microarray analysis was performed on duplicate of LDN treated and Non-treated (NT) hOPC.

[2] = test system: hPSC derived oligodendrocytes co-cultured with rodent dorsal root ganglia neurons (MBP+ cells); test: Co-culture myelination assay (human oligodendrocytes with DRG neurons), MBP staining; assay type: cell-based
Description: ArrayScan VTI HCS reader system (Cellomis, Thermo-scientific) was used for scanning at least 20 fields for each tested well under 10× objective in both assays (differentiation and myelination). Cellomics Neural profiling bio-application was used for processing and analyzing the images. For differentiation assay, the following parameters were tested: number and percentage of O4+ cells, number of processes, processes length and number of branching points. For myelination assay, the same morphological parameters were tested and in addition: areas of myelinated axons in pixels (MBP&NF overlap area) and Number of myelinated regions (MBP&NF overlap count) were also analyzed. Modifications in the Neuro-profiling bio-application were conducted for this specific purpose. T-test analysis was used to compare between treatments. The 4-parameter Hill-Slope curve fittings were generated by GraphPad Prism software using least squares fitting method and EC50 values were calculated.
DRG dissociated cells from mouse embryonic day 13 (E13) or rat embryonic day (E15) were seeded on matrigel and PDL-coated 96 well plates (20,000 cells/well). In order to allow long culture and co-culture of neuron axons in 96 well plates without de-attachment, a method where the periphery of each well was scratched leaving sticky edges (and smooth surface) was developed. This scratch methodology enables long lasting culture of neuron axons on 96 well format. Once DRG neurons were seeded they were fed with Neurobasal medium (Gibco) supplemented with B27 (Gibco) and 50 ng/ml NGF (Alomone labs) (NB medium) for 2-3 weeks prior hES-OPC addition. […]
For testing maturation and myelination capacity of the hPSC derived oligodendrocytes, a co-culture system between rodent dorsal root ganglia (DRGs) and hPSCs derived oligodendrocytes was used. The number of MBP+ cells (MBP, a marker of oligodendrocytes' myelin) and Myelin formation (measured by co-localization area between MBP and neurofilament positive neuronal axons) was quantified.

c1ccc2c(-c3cnn4cc(-c5ccc(N6CCNCC6)cc5)cnc34)ccnc2c1 [LDN-193189]
LDN expression value: ADAMTS5, cluster 16924620 [1]: 4.59
LDN expression value: AN04, cluster 16755712 [1]: 3.1
LDN expression value: ARHGAP28, cluster 16850724 [1]: 3.09
LDN expression value: ASPN, cluster 17095887 [1]: 9.23
LDN expression value: ATP8B1, cluster 16855510 [1]: 3.98
LDN expression value: BCAS1, cluster 16920475 [1]: 6.52
LDN expression value: BMP8B, cluster 16685729 [1]: 4.53
LDN expression value: C1QTNF9B-AS1, cluster 16773183 [1]: 3.69
LDN expression value: CACNG5, cluster 16837160 [1]: 5.71
LDN expression value: CATSPER2P1, cluster 16808340 [1]: 5.12
LDN expression value: CGB2, cluster 16863963 [1]: 4.05
LDN expression value: CKMT1A, cluster 16800268 [1]: 4.08
LDN expression value: CLDN25, cluster 16731401 [1]: 4.26
LDN expression value: CLVS2, cluster 17012223 [1]: 4.53
LDN expression value: COL12A1, cluster 17020846 [1]: 8.23
LDN expression value: CYTL1, cluster 16973934 [1]: 5.81
LDN expression value: DLX2, cluster 16905108 [1]: 6.25
LDN expression value: DLX6-AS1, cluster 17060039 [1]: 5.13
LDN expression value: EFTUD1P1, cluster 16804141 [1]: 3.87
LDN expression value: FLJ16124, cluster 16880774 [1]: 3.13
LDN expression value: GABRQ, cluster 17107855 [1]: 6.76
LDN expression value: GAD2, cluster 16703382 [1]: 3.71
LDN expression value: GFRA1, cluster 16718670 [1]: 7.52
LDN expression value: GJB2, cluster 16777185 [1]: 4.88
LDN expression value: GPR126, cluster 17013126 [1]: 5.42
LDN expression value: GRIK1, cluster 16924761 [1]: 7.51
LDN expression value: GSX2, cluster 16966801 [1]: 4.62
LDN expression value: HCG24, cluster 17028423 [1]: 2.38
LDN expression value: ID1, cluster 16912362 [1]: 4.47
LDN expression value: ID3, cluster 16683377 [1]: 5.5
LDN expression value: IGLV3-9, cluster 16927827 [1]: 5.34
LDN expression value: IL17RB, cluster 16941871 [1]: 4.55
LDN expression value: INSM1, cluster 16911917 [1]: 6.13
LDN expression value: KIAA1199, cluster 16803754 [1]: 4.07
LDN expression value: LOC284632, cluster 16660753 [1]: 3.33
LDN expression value: LOC100286922, cluster 16909695 [1]: 3.3
LDN expression value: LPAR3, cluster 16688992 [1]: 5.8
LDN expression value: LRRC7, cluster 16665976 [1]: 3.48
LDN expression value: LRRTM1, cluster 16899533 [1]: 3.97
LDN expression value: MIR1226, cluster 16940440 [1]: 4.98
LDN expression value: MIR1321, cluster 17105179 [1]: 3.47
LDN expression value: MIR3160-1, cluster 16724356 [1]: 4.18
LDN expression value: MSLNL, cluster 16822561 [1]: 5.67
LDN expression value: NUDT9P1, cluster 16716499 [1]: 3.56
LDN expression value: OR2V1, cluster 17004061 [1]: 3.13
LDN expression value: OTTHUMG00000156244, cluster 17056553 [1]: 4.16
LDN expression value: OTTHUMG00000176466, cluster 16826102 [1]: 5.02
LDN expression value: PAPPA2, cluster 16674151 [1]: 4.24
LDN expression value: PDE5A, cluster 16979339 [1]: 4.13
LDN expression value: PPP1R17, cluster 17044956 [1]: 5.13
LDN expression value: RNA5SP482, cluster 16912470 [1]: 2.92
LDN expression value: SCARNA1, cluster 16661495 [1]: 2.28
LDN expression value: SCGN, cluster 17005473 [1]: 6.7
LDN expression value: SERPINA3, cluster 16787902 [1]: 5.07
LDN expression value: SLC1A2, cluster 16737325 [1]: 6.08
LDN expression value: SLC1A4, cluster 16880712 [1]: 8.96
LDN expression value: SLC1A5, cluster 16873632 [1]: 6.29
LDN expression value: SNORA70B, cluster 16898108 [1]: 2.38
LDN expression value: SNORD1B, cluster 16838101 [1]: 3.01
LDN expression value: SNORD37, cluster 16867229 [1]: 3.63
LDN expression value: SNORD88B, cluster 16874641 [1]: 5.05
LDN expression value: SOX10, cluster 16934881 [1]: 6.63
LDN expression value: SP8, cluster 17055689 [1]: 4.65
LDN expression value: ST18, cluster 17077073 [1]: 2.85
LDN expression value: TEX35, cluster 16674240 [1]: 3.05
LDN expression value: TNFAIP6, cluster 16886491 [1]: 5.47
LDN expression value: TNR, cluster 16696624 [1]: 8.09
LDN expression value: TRAJ46, cluster 16782032 [1]: 3.99
LDN expression value: TRIM65, cluster 16848961 [1]: 5.41
LDN expression value: TTK, cluster 17010552 [1]: 5.68
LDN expression value: UGT8, cluster 16970001 [1]: 8.99
LDN expression value: WIF1, cluster 16767081 [1]: 5.73
LDN expression value: ZIC2, cluster 16776103 [1]: 4.76
LDN expression value: cluster 16662690 [1]: 3.02
LDN expression value: cluster 16689704 [1]: 2.34
LDN expression value: cluster 16697040 [1]: 3.18
LDN expression value: cluster 16697217 [1]: 3.02
LDN expression value: cluster 16703561 [1]: 5.3
LDN expression value: cluster 16707466 [1]: 3.92
LDN expression value: cluster 16740950 [1]: 5.53
LDN expression value: cluster 16742286 [1]: 4.35
LDN expression value: cluster 16758848 [1]: 4.29
LDN expression value: cluster 16766940 [1]: 6.76
LDN expression value: cluster 16781352 [1]: 4.74
LDN expression value: cluster 16797929 [1]: 5.86
LDN expression value: cluster 16834632 [1]: 3.21
LDN expression value: cluster 16846798 [1]: 5.15
LDN expression value: cluster 16906256 [1]: 3.32
LDN expression value: cluster 16926511 [1]: 5.66
LDN expression value: cluster 16928859 [1]: 2.2
LDN expression value: cluster 16985206 [1]: 3.41
LDN expression value: cluster 16997369 [1]: 4.3
LDN expression value: cluster 17012233 [1]: 3.53
LDN expression value: cluster 17042403 [1]: 7.47
LDN expression value: cluster 17056789 [1]: 6.64
LDN expression value: cluster 17063571 [1]: 2.81
LDN expression value: cluster 17112263 [1]: 2.9
LDN expression value: cluster 17117590 [1]: 5.68
LDN expression value: cluster 17118266 [1]: 2.43
LDN expression value: cluster 17118303 [1]: 3.61
LDN expression value: cluster 17124590 [1]: 2.62
MBP+ cells number / differentiation into MBP+ cells (summary statement) [2]: increased also the number of MBP+ cells
number of MBP+ cells (mature oligodendrocytes) ([2]; 14 days co-culture, 125 nM LDN-193189 added to MYL media with 50 ng/ml Noggin, vs Noggin alone): increased the number of MBP+ cells; also recorded: significant increase
total cell count ([2]; 14 days co-culture, Noggin+LDN-193189 vs Noggin alone): no difference was observed

From US20170095512A1, “METHODS OF INDUCING MYELINATION AND MATURATION OF OLIGODENDROCYTES” (KADIMASTEM LTD., priority 2014, published 2017)
